Results published in ChEMBL document CHEMBL3885861, “Open TG-GATES”.

Species on record: Rattus norvegicus
Assay: Open TG-GATES - Regimen: Daily Repeat
Format: toxicity, organism-based, Sprague-Dawley
Parameters: regimen Daily Repeat, gender Male, age 6 weeks
Conditions: in vivo, po, 2000 mg/kg, route gavage, dose level High; for Bas / Eos / Hb / Ht / Lym / MCH / MCHC / MCV / Mono / Neu / Plat / RBC / Ret / WBC: tissue Blood; for KIDNEY_L / KIDNEY_R / KIDNEY_TOTAL: tissue Kidney; for LIVER: tissue Liver; for A/G / ALP / ALT / AST / BUN / CRE / Ca / Cl / DBIL / GLC / IP / K / LDH / Na / PL / RALB / TBIL / TC / TG / TP / gamma-GTP: tissue Plasma

## CC(N)=O [ACETAMIDE]
72 h, time 3 day
  TERMINAL_BW: 234.1 g
  Bas: 0%
  Eos: 0.4%
  Hb: 13 g/dL
  Ht: 40%
  Lym: 78%
  MCH: 20.1 pg
  MCHC: 32.6%
  MCV: 61.7 fL
  Mono: 5.2%
  Neu: 14.4%
  Plat: 119.8 x10_4/uL
  RBC: 647.8 x10_4/ul
  Ret: 7.6%
  WBC: 106.6 x10_2/uL
  KIDNEY_L: 1.1 g
  KIDNEY_R: 1.1 g
  KIDNEY_TOTAL: 2.2 g
  LIVER: 10.9 g
  A/G: 1
  ALP: 1650 IU/L
  ALT: 60.6 IU/L
  AST: 95.2 IU/L
  BUN: 18.4 mg/dL
  CRE: 0.1 mg/dL
  Ca: 10.9 mg/dL
  Cl: 103.7 meq/L
  DBIL: 0.006 mg/dL
  GLC: 187.4 mg/dL
  IP: 7.5 mg/dL
  K: 4.2 meq/L
  LDH: 200.2 IU/L
  Na: 140.6 meq/L
  PL: 160.4 mg/dL
  RALB: 2.8 g/dL
  TBIL: 0.014 mg/dL
  TC: 79.2 mg/dL
  TG: 94.6 mg/dL
  TP: 5.5 g/dL
  gamma-GTP: 1 IU/L
[…], time 7 day
  TERMINAL_BW: 255.2 g
  Bas: 0%
  Eos: 1%
  Hb: 13.7 g/dL
  Ht: 41.1%
  Lym: 78.2%
  MCH: 19.5 pg
  MCHC: 33.4%
  MCV: 58.4 fL
  Mono: 4%
  Neu: 15.2%
  Plat: 89.2 x10_4/uL
  RBC: 704.6 x10_4/ul
  Ret: 4.4%
  WBC: 108.9 x10_2/uL
  KIDNEY_L: 1.1 g
  KIDNEY_R: 1.1 g
  KIDNEY_TOTAL: 2.3 g
  LIVER: 10.6 g
  A/G: 1
  ALP: 2391.2 IU/L
  ALT: 74.6 IU/L
  AST: 114.4 IU/L
  BUN: 18.5 mg/dL
  CRE: 0.2 mg/dL
  Ca: 10.5 mg/dL
  Cl: 103.1 meq/L
  DBIL: 0.02 mg/dL
  GLC: 194.8 mg/dL
  IP: 5.9 mg/dL
  K: 4.2 meq/L
  LDH: 251.2 IU/L
  Na: 141.3 meq/L
  PL: 170.8 mg/dL
  RALB: 2.8 g/dL
  TBIL: 0.028 mg/dL
  TC: 89.8 mg/dL
  TG: 94 mg/dL
  TP: 5.6 g/dL
  gamma-GTP: 1.1 IU/L
[…], time 14 day
  TERMINAL_BW: 310 g
  Bas: 0%
  Eos: 0.4%
  Hb: 14 g/dL
  Ht: 41.6%
  Lym: 84.8%
  MCH: 19.6 pg
  MCHC: 33.6%
  MCV: 58.2 fL
  Mono: 2.4%
  Neu: 10.6%
  Plat: 101.3 x10_4/uL
  RBC: 713.8 x10_4/ul
  Ret: 4.1%
  WBC: 156.4 x10_2/uL
  KIDNEY_L: 1.3 g
  KIDNEY_R: 1.3 g
  KIDNEY_TOTAL: 2.6 g
  LIVER: 11.7 g
  A/G: 0.9
  ALP: 1866.6 IU/L
  ALT: 90.6 IU/L
  AST: 159.8 IU/L
  BUN: 17.1 mg/dL
  CRE: 0.2 mg/dL
  Ca: 10.1 mg/dL
  Cl: 103.9 meq/L
  DBIL: 0.054 mg/dL
  GLC: 187.8 mg/dL
  IP: 6 mg/dL
  K: 4.2 meq/L
  LDH: 232.2 IU/L
  Na: 141.6 meq/L
  PL: 156.2 mg/dL
  RALB: 2.7 g/dL
  TBIL: 0.07 mg/dL
  TC: 87.2 mg/dL
  TG: 77.7 mg/dL
  TP: 5.5 g/dL
  gamma-GTP: 1.6 IU/L
[…], time 28 day
  TERMINAL_BW: 403 g
  Bas: 0%
  Eos: 0.8%
  Hb: 14.8 g/dL
  Ht: 44%
  Lym: 78.8%
  MCH: 19.4 pg
  MCHC: 33.8%
  MCV: 57.6 fL
  Mono: 3%
  Neu: 15.6%
  Plat: 88.6 x10_4/uL
  RBC: 763.8 x10_4/ul
  Ret: 2.6%
  WBC: 121.1 x10_2/uL
  KIDNEY_L: 1.5 g
  KIDNEY_R: 1.6 g
  KIDNEY_TOTAL: 3.1 g
  LIVER: 14.4 g
  A/G: 0.9
  ALP: 1427.6 IU/L
  ALT: 55.6 IU/L
  AST: 87.4 IU/L
  BUN: 18 mg/dL
  CRE: 0.2 mg/dL
  Ca: 10.2 mg/dL
  Cl: 104.2 meq/L
  DBIL: 0.01 mg/dL
  GLC: 199 mg/dL
  IP: 5.3 mg/dL
  K: 4.1 meq/L
  LDH: 286.2 IU/L
  Na: 141.9 meq/L
  PL: 136.2 mg/dL
  RALB: 2.8 g/dL
  TBIL: 0.01 mg/dL
  TC: 65.8 mg/dL
  TG: 102.2 mg/dL
  TP: 6 g/dL
  gamma-GTP: 0.8 IU/L
